Data published in paper PMC12064818, “A general assay platform to study protein pharmacology using ligand-dependent structural dynamics” (Nature Communications, 2025).
Values joined by “and” are separate entries in the source; they are usually repeats but may differ in a detail not shown here. Equal entries are not always repeated.

How the values were obtained:
[1] = target: FLuc-C-HiBiT (firefly luciferase) (Photinus pyralis, UniProt P08659, form not given/L550V); test: Firefly luciferase (FLuc) enzymatic luminescence assay, FLuc-C-HiBiT; type: biochemical; details: for 10 nM FLuc-C-HiBiT Enz, Mean: Log [PTC124]
Chain of FLuc-C-HiBiT (firefly luciferase) (P08659 2-550 L550V, form open): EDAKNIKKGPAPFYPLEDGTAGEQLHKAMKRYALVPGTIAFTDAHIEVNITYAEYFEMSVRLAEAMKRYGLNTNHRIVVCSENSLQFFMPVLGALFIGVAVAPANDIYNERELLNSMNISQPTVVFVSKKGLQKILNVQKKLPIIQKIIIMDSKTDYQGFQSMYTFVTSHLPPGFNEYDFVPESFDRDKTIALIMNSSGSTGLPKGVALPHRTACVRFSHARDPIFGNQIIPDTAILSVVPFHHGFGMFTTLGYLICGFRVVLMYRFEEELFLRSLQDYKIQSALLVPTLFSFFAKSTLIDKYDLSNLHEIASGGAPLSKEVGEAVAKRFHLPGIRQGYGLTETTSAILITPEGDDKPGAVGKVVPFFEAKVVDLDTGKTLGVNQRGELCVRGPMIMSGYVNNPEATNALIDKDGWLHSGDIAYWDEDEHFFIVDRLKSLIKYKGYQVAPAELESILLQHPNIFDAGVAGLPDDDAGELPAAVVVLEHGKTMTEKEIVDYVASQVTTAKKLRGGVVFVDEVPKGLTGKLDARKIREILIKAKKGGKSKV
How it was run: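 Compounds were preincubated 30–60 min at room temperature in the dark with 1–10 nM fusion enzyme in PBS pH 7.4. D-luciferin was then added (10 µM final) for 5 min before luminescence was imaged. Inhibition was normalized to no-enzyme control (100%) and DMSO neutral control.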

[2] = target: FLuc-C-NLuc (firefly luciferase) (Photinus pyralis, UniProt P08659, form not given/L550V); test: SDR assay, FLuc-C-NLuc; details: for SDR + 10 mM ATP / SDR No ATP: 1 nM FLuc-C-NLuc, replicates; for SDR + 10 mM ATP / SDR No ATP / 1 nM FLuc-C-NLuc + 10 mM ATP, Mean / 1 nM FLuc-C-NLuc No ATP, Mean: Log [PTC124]; for SDR assay statistics Ave RLU / SDR assay statistics S:B / SDR assay statistics S:N / SDR assay statistics Z’: 32.8 µM ligand; for 1 nM FLuc-C-NLuc + 10 mM ATP, Mean / 1 nM FLuc-C-NLuc No ATP, Mean: SDR
Chain of FLuc-C-NLuc (firefly luciferase) (P08659 2-550 L550V, form open): as above

[3] = FLuc-C-HiBiT (10 nM) + 10 mM ATP, 32.8 µM ligand

## O=C(O)c1cccc(-c2noc(-c3ccccc3F)n2)c1 [PTC124, reference compound]
[1]; 10 μM ATP
  pIC50, FLuc-C-HiBiT (10 nM): 7.95 ± 0.02
[1]; [3]
  Standard assay statistics Ave RLU: 48.5 RLU
  Standard assay statistics S:B: 0.0352
  Standard assay statistics S:N: -14.1
  Standard assay statistics Z’: 0.761
[1]; M (Enz) -4.24
  10 nM FLuc-C-HiBiT Enz, Mean: 3.7 RLU
[1]; M (Enz) -4.72
  10 nM FLuc-C-HiBiT Enz, Mean: 3.6 RLU
[1]; M (Enz) -5.19
  10 nM FLuc-C-HiBiT Enz, Mean: 3.8 RLU
[1]; M (Enz) -5.67
  10 nM FLuc-C-HiBiT Enz, Mean: 4.4 RLU
[1]; M (Enz) -6.15
  10 nM FLuc-C-HiBiT Enz, Mean: 4.9 RLU
[1]; M (Enz) -6.63
  10 nM FLuc-C-HiBiT Enz, Mean: 6.7 RLU
[1]; M (Enz) -7.10
  10 nM FLuc-C-HiBiT Enz, Mean: 13.5 RLU
[1]; M (Enz) -7.58
  10 nM FLuc-C-HiBiT Enz, Mean: 42.4 RLU
[1]; M (Enz) -8.06
  10 nM FLuc-C-HiBiT Enz, Mean: 126.0 RLU
[1]; M (Enz) -8.53
  10 nM FLuc-C-HiBiT Enz, Mean: 177.8 RLU
[1]; M (Enz) -9.01
  10 nM FLuc-C-HiBiT Enz, Mean: 195.6 RLU
[1]; M (Enz) -9.49
  10 nM FLuc-C-HiBiT Enz, Mean: 204.3 RLU
[1]; M (Enz) -9.97
  10 nM FLuc-C-HiBiT Enz, Mean: 206.3 RLU
[1]; M (Enz) -10.44
  10 nM FLuc-C-HiBiT Enz, Mean: 203.9 RLU
[1]; M (Enz) -10.92
  10 nM FLuc-C-HiBiT Enz, Mean: 205.8 RLU
[1]; M (Enz) -11.40
  10 nM FLuc-C-HiBiT Enz, Mean: 202.8 RLU
[2]; 0 μM ATP
  pSDR50, FLuc-C-NLuc (1 nM): 5.88 ± 0.04
[2]; M -4.48
  SDR + 10 mM ATP: 7557.2 RLU and 7497.6 RLU and 7631.5 RLU and 7551.6 RLU and 7524.6 RLU and 7378.2 RLU
  SDR No ATP: 7094.5 RLU and 7036.1 RLU and 7197.7 RLU and 7251.5 RLU and 7107.6 RLU and 7010.0 RLU
  1 nM FLuc-C-NLuc + 10 mM ATP, Mean: 7523.5 RLU
  1 nM FLuc-C-NLuc No ATP, Mean: 7116.2 RLU
[2]; M -4.96
  SDR + 10 mM ATP: 8653.1 RLU and 8918.3 RLU and 8729.5 RLU and 8753.4 RLU and 8625.3 RLU and 8631.1 RLU
  SDR No ATP: 7649.4 RLU and 7690.6 RLU and 7782.9 RLU and 7784.7 RLU and 7753.8 RLU and 7789.6 RLU
  1 nM FLuc-C-NLuc + 10 mM ATP, Mean: 8718.4 RLU
  1 nM FLuc-C-NLuc No ATP, Mean: 7741.8 RLU
[2]; M -5.44
  SDR + 10 mM ATP: 9503.1 RLU and 9394.8 RLU and 9366.2 RLU and 9511.1 RLU and 9276.8 RLU and 9264.6 RLU
  SDR No ATP: 7463.4 RLU and 7521.3 RLU and 7506.8 RLU and 7660.8 RLU and 7389.5 RLU and 7591.3 RLU
  1 nM FLuc-C-NLuc + 10 mM ATP, Mean: 9386.1 RLU
  1 nM FLuc-C-NLuc No ATP, Mean: 7522.2 RLU
[2]; M -5.91
  SDR + 10 mM ATP: 9834.3 RLU and 9880.8 RLU and 9675.2 RLU and 9786.2 RLU and 9362.5 RLU and 9414.4 RLU
  SDR No ATP: 7041.2 RLU and 7015.2 RLU and 7004.0 RLU and 7050.2 RLU and 7076.1 RLU and 7039.0 RLU
  1 nM FLuc-C-NLuc + 10 mM ATP, Mean: 9658.9 RLU
  1 nM FLuc-C-NLuc No ATP, Mean: 7037.6 RLU
[2]; M -6.39
  SDR + 10 mM ATP: 9915.0 RLU and 9970.8 RLU and 10012.5 RLU and 10081.2 RLU and 9830.9 RLU and 9904.0 RLU
  SDR No ATP: 6691.1 RLU and 6782.7 RLU and 6754.8 RLU and 6847.3 RLU and 6762.8 RLU and 6799.3 RLU
  1 nM FLuc-C-NLuc + 10 mM ATP, Mean: 9952.4 RLU
  1 nM FLuc-C-NLuc No ATP, Mean: 6773.0 RLU
[2]; M -6.87
  SDR + 10 mM ATP: 10082.6 RLU and 10234.0 RLU and 10143.0 RLU and 10158.0 RLU and 9950.0 RLU and 10015.6 RLU
  SDR No ATP: 6611.5 RLU and 6294.6 RLU and 6649.4 RLU and 6762.3 RLU and 6579.8 RLU and 6635.0 RLU
  1 nM FLuc-C-NLuc + 10 mM ATP, Mean: 10097.2 RLU
  1 nM FLuc-C-NLuc No ATP, Mean: 6588.7 RLU
[2]; M -7.35
  SDR + 10 mM ATP: 10197.1 RLU and 10347.4 RLU and 10179.3 RLU and 10327.2 RLU and 10158.4 RLU and 10151.6 RLU
  SDR No ATP: 6611.5 RLU and 6675.5 RLU and 6753.6 RLU and 6721.7 RLU and 6667.7 RLU and 6659.2 RLU
  1 nM FLuc-C-NLuc + 10 mM ATP, Mean: 10226.8 RLU
  1 nM FLuc-C-NLuc No ATP, Mean: 6681.5 RLU
[2]; M -7.82
  SDR + 10 mM ATP: 10273.2 RLU and 10529.0 RLU and 10260.9 RLU and 10390.3 RLU and 10195.8 RLU and 10173.3 RLU
  SDR No ATP: 6601.3 RLU and 6794.9 RLU and 6657.3 RLU and 6777.0 RLU and 6066.9 RLU and 6627.0 RLU
  1 nM FLuc-C-NLuc + 10 mM ATP, Mean: 10303.8 RLU
  1 nM FLuc-C-NLuc No ATP, Mean: 6587.4 RLU
[2]; M -8.30
  SDR + 10 mM ATP: 10428.2 RLU and 10351.9 RLU and 10431.4 RLU and 10340.3 RLU and 10350.0 RLU and 10135.7 RLU
  SDR No ATP: 6797.1 RLU and 6778.7 RLU and 6811.3 RLU and 6783.1 RLU and 6776.8 RLU and 6755.1 RLU
  1 nM FLuc-C-NLuc + 10 mM ATP, Mean: 10339.6 RLU
  1 nM FLuc-C-NLuc No ATP, Mean: 6783.7 RLU
[2]; M -8.78
  SDR + 10 mM ATP: 10307.0 RLU and 10240.9 RLU and 10295.8 RLU and 10255.7 RLU and 10212.3 RLU and 10156.0 RLU
  SDR No ATP: 6765.6 RLU and 6820.8 RLU and 6789.0 RLU and 6870.9 RLU and 6762.2 RLU and 6786.7 RLU
  1 nM FLuc-C-NLuc + 10 mM ATP, Mean: 10244.6 RLU
  1 nM FLuc-C-NLuc No ATP, Mean: 6799.2 RLU
[2]; M -9.25
  SDR + 10 mM ATP: 9955.6 RLU and 10061.6 RLU and 10070.3 RLU and 10144.7 RLU and 9901.2 RLU and 9937.3 RLU
  SDR No ATP: 6778.5 RLU and 6738.4 RLU and 6784.4 RLU and 6835.7 RLU and 6812.5 RLU and 6775.6 RLU
  1 nM FLuc-C-NLuc + 10 mM ATP, Mean: 10011.8 RLU
  1 nM FLuc-C-NLuc No ATP, Mean: 6787.5 RLU
[2]; M -9.73
  SDR + 10 mM ATP: 9060.9 RLU and 8791.4 RLU and 9269.7 RLU and 9103.3 RLU and 8979.5 RLU and 9077.2 RLU
  SDR No ATP: 6814.0 RLU and 6880.4 RLU and 6857.6 RLU and 6871.7 RLU (2×) and 6648.1 RLU
  1 nM FLuc-C-NLuc + 10 mM ATP, Mean: 9047.0 RLU
  1 nM FLuc-C-NLuc No ATP, Mean: 6823.9 RLU
[2]; M -10.21
  SDR + 10 mM ATP: 8039.8 RLU and 7910.0 RLU and 8237.3 RLU and 8034.2 RLU and 8059.8 RLU and 8095.1 RLU
  SDR No ATP: 6863.1 RLU and 6890.7 RLU and 6909.9 RLU and 6915.4 RLU and 6885.5 RLU and 6851.9 RLU
  1 nM FLuc-C-NLuc + 10 mM ATP, Mean: 8062.7 RLU
  1 nM FLuc-C-NLuc No ATP, Mean: 6886.1 RLU
[2]; M -10.69
  SDR + 10 mM ATP: 7243.2 RLU and 7192.1 RLU and 7498.0 RLU and 7333.4 RLU and 7436.9 RLU and 7459.7 RLU
  SDR No ATP: 6866.7 RLU and 6851.6 RLU (2×) and 6906.1 RLU and 6919.7 RLU and 6944.4 RLU
  1 nM FLuc-C-NLuc + 10 mM ATP, Mean: 7360.6 RLU
  1 nM FLuc-C-NLuc No ATP, Mean: 6890.0 RLU
[2]; M -11.16
  SDR + 10 mM ATP: 6972.7 RLU and 6906.8 RLU (2×) and 7044.6 RLU and 7092.1 RLU and 7092.6 RLU
  SDR No ATP: 6852.5 RLU and 6810.5 RLU and 6865.3 RLU and 6827.1 RLU and 6885.6 RLU and 6853.6 RLU
  1 nM FLuc-C-NLuc + 10 mM ATP, Mean: 7002.6 RLU
  1 nM FLuc-C-NLuc No ATP, Mean: 6849.1 RLU
[2]; M -11.64
  SDR + 10 mM ATP: 6987.2 RLU and 6840.0 RLU and 7030.1 RLU and 6788.2 RLU and 7034.1 RLU and 6802.7 RLU
  SDR No ATP: 6913.4 RLU and 6769.3 RLU and 6893.0 RLU and 6868.3 RLU and 6877.6 RLU and 6825.9 RLU
  1 nM FLuc-C-NLuc + 10 mM ATP, Mean: 6913.7 RLU
  1 nM FLuc-C-NLuc No ATP, Mean: 6857.9 RLU
[2]; 10 μM ATP
  pSDR50, FLuc-C-NLuc (1 nM): 9.95 ± 0.05
[2]; FLuc-C-NLuc (1 nM) + 10 mM ATP
  SDR assay statistics Ave RLU: 8287.4 RLU
  SDR assay statistics S:B: 1.2
  SDR assay statistics S:N: 3.4
  SDR assay statistics Z’: -0.259
[2]; FLuc-C-NLuc (1 nM) No ATP
  SDR assay statistics Ave RLU: 7850.3 RLU
  SDR assay statistics S:B: 1.2
  SDR assay statistics S:N: 2.6
  SDR assay statistics Z’: -0.605
